We go through 1 compound from patent US20100268187A1, “PACKAGING FOR SIROLIMUS AND COMPOSITION THEREOF” (Ranbaxy Laboratories Limited, priority 2009, published 2010).

A short description of this data set: Stability studies of sirolimus particles packed in vacuum sealed impermeable container at 25° C. and 60% RH, impurities by gradient HPLC. The class given is physicochemical. The settings on record: three months. The text has this:
Sirolimus particles (d90-4.1 micron) were packed in a bag made up of laminate having a polyester and a polyethylene layer wherein the layers have a thickness of 12 micron and 75 micron, respectively. The bag was sealed under vacuum. The vacuum sealed bag was put into second bag made up of laminate having polyester, aluminium foil, polyester and polyethylene layer wherein the layers have a thickness of 12 micron, 12 micron, 12 micron and 75 microns, respectively. The second bag was sealed under vacuum and was subjected to stability studies at 25° C. and 60% RH for three months.
Quantitative determination was carried out using Gradient High Performance Liquid Chromatography with a mixture of ammonium phosphate buffer and an organic phase (acetonitrile and tetrahydrofuran) as the mobile phase, ACE C18, HL, 5 μm column as a stationary phase and a UV detector.

Molecules are shown by their SMILES.

Turning to `CO[C@H]1C[C@@H]2CC[C@@H](C)[C@@](O)(O2)C(=O)C(=O)N2CCCC[C@H]2C(=O)O[C@H]([C@H](C)C[C@@H]2CC[C@@H](O)[C@H](OC)C2)CC(=O)[C@H](C)/C=C(\C)[C@@H](O)[C@@H](OC)C(=O)[C@H](C)C[C@H](C)/C=C/C=C/C=C/1C` [sirolimus particles, Sirolimus], the Stability on storage entry is listed as “stable”.
